Drawing on ChEMBL document CHEMBL4699445, “Highly Potent Antiausterity Agents from Callistemon citrinus and Their Mechanism of Action against the PANC-1 Human Pancreatic Cancer Cell Line” (2020), this text covers PC50, Activity and inhibition for 16 compounds.

For assay [1], the system named is PANC-1. The assay can be described thus: Anticancer activity against human PANC-1 cells assessed as reduction in cell viability in nutrient-deprived medium after 24 hrs by WST-8 assay. The format is functional. (In general: Tetrazolium dyes change colour on reduction, which living cells bring about.)
Assay [2] concerns PANC-1. The assay can be described thus: Induction of cell morphological changes in human PANC-1 cells assessed as dead cells at 0.1 uM after 24 hrs in nutrient-deprived medium by ethidium bromide-acridine orange staining based fluorescence microscopic analysis. Format: functional.
The subject of assay [3] is PANC-1. Briefly: Inhibition of cell migration in human PANC1 cells assessed as open wound area at 5 uM cultured in nutrient rich DMEM medium measured after 12 hrs by quantitative real-time imaging based wound healing assay (reference value: 57.5%). The format is functional. Set-up: scale not given: the % may be the effect or the level left.
Assay [4] relates to PANC-1. The assay can be described thus: Inhibition of cell migration in human PANC1 cells assessed as open wound area at 5 uM cultured in nutrient rich DMEM medium measured after 24 hrs by quantitative real-time imaging based wound healing assay (reference value: 15%). Set-up: scale not given: the % may be the effect or the level left. The format is functional.
The test system of assay [5] is PANC-1. Briefly: Inhibition of colony formation in human PANC-1 cells in nutrient rich DMEM medium measured after 24 hrs by crystal violet staining based assay. Conditions: dose microM 2.5-10, time 24.0 hrs. Format: functional, cell-based.
Assay [6] has as its system PANC-1. Briefly: Inhibition of colony formation in human PANC-1 cells in nutrient rich DMEM medium at 2.5 uM measured after 24 hrs by crystal violet staining based assay (reference value: 33%). The format is functional.
The test system of assay [7] is PANC-1. Briefly: Inhibition of colony formation in human PANC-1 cells in nutrient rich DMEM medium at 5 uM measured after 24 hrs by crystal violet staining based assay (reference value: 33%). Format: functional.
In assay [8] the test system is PANC-1. Briefly: Inhibition of colony formation in human PANC-1 cells in nutrient rich DMEM medium at 10 uM measured after 24 hrs by crystal violet staining based assay (reference value: 33%). Format: functional.
Assay [9] concerns PANC-1. The assay can be described thus: Inhibition of PI3K/Akt/mTOR signaling in human PANC-1 cells assessed as decrease in PI3K p110alpha level measured after 3 to 6 hrs by Western blot analysis. The format is cell-based. The conditions noted are these: dose microM 1-10, time hrs 3-6.
For assay [10], the system named is PANC-1. The assay can be described thus: Inhibition of PI3K/Akt/mTOR signaling in human PANC-1 cells assessed as decrease in PI3K p110beta level measured after 3 to 6 hrs by Western blot analysis. Conditions: dose 1-10 µM, time 3-6 hrs. The format is cell-based.
In assay [11] the test system is PANC-1. Briefly: Inhibition of PI3K/Akt/mTOR signaling in human PANC-1 cells assessed as decrease in Akt level measured after 3 to 6 hrs by Western blot analysis. Format: cell-based. The conditions noted are these: dose 1-10 µM, time 3-6 hrs. Background: A western blot detects proteins with antibodies after separation by electrophoresis.
Assay [12] concerns PANC-1. The assay can be described thus: Inhibition of PI3K/Akt/mTOR signaling in human PANC-1 cells assessed as decrease in pAkt at S473 level measured after 3 to 6 hrs by Western blot analysis. Format: cell-based. The conditions noted are these: dose 1-10 µM, time 3-6 hrs.
Assay [13] relates to PANC-1. Briefly: Inhibition of PI3K/Akt/mTOR signaling in human PANC-1 cells assessed as decrease in mTOR level measured after 3 to 6 hrs by Western blot analysis. The format is cell-based. The conditions noted are these: dose 1-10 µM, time 3-6 hrs.
Assay [14] concerns PANC-1. Briefly: Inhibition of PI3K/Akt/mTOR signaling in human PANC-1 cells assessed as decrease in pmTOR S2481 level measured after 3 to 6 hrs by Western blot analysis. The conditions noted are these: dose 1-10 µM, time 3-6 hrs. The format is cell-based.
Assay [15] concerns PANC-1. Briefly: Inhibition of PI3K/Akt/mTOR signaling in human PANC-1 cells assessed as decrease in PI3K p110alpha level at 1 to 10 uM by Western blot analysis. The format is cell-based. Conditions: dose 1-10 µM, time 3-6 hrs, TDE = time-dependent effect.
Assay [16] has as its system PANC-1. Briefly: Inhibition of PI3K/Akt/mTOR signaling in human PANC-1 cells assessed as decrease in PI3K p110beta level at 1 to 10 uM by Western blot analysis. The format is cell-based. Conditions: dose 1-10 µM, time 3-6 hrs, TDE = time-dependent effect.
The subject of assay [17] is PANC-1. The assay can be described thus: Inhibition of PI3K/Akt/mTOR signaling in human PANC-1 cells assessed as decrease in Akt level at 1 to 10 uM by Western blot analysis. Format: cell-based. Conditions: dose 1-10 µM, time 3-6 hrs, TDE = time-dependent effect.
Assay [18] concerns PANC-1. Briefly: Inhibition of PI3K/Akt/mTOR signaling in human PANC-1 cells assessed as decrease in pAkt at S473 level at 1 to 10 uM by Western blot analysis. Format: cell-based. The conditions noted are these: dose 1-10 µM, time 3-6 hrs, TDE = time-dependent effect.
Assay [19] concerns PANC-1. The assay can be described thus: Inhibition of PI3K/Akt/mTOR signaling in human PANC-1 cells assessed as decrease in mTOR level at 1 to 10 uM by Western blot analysis. The format is cell-based. The conditions noted are these: dose 1-10 µM, time 3-6 hrs, TDE = time-dependent effect.
Assay [20] has as its system PANC-1. The assay can be described thus: Inhibition of PI3K/Akt/mTOR signaling in human PANC-1 cells assessed as decrease in pmTOR S2481 level at 1 to 10 uM by Western blot analysis. Conditions: dose 1-10 µM, time 3-6 hrs, TDE = time-dependent effect. The format is cell-based.
For assay [21], the system named is PANC-1. The assay can be described thus: Inhibition of PI3K/Akt/mTOR signaling in human PANC-1 cells assessed as decrease in LC3-II level at 1 to 10 uM measured after 3 to 6 hrs by Western blot analysis. Format: cell-based. The conditions noted are these: dose 1-10 µM, time 3-6 hrs.

Calls of active or inactive are those of the source. The calls are words filed in the database; no cut-off is given here.

For `COc1cc([C@H]2c3cc(O)c(OC)cc3C[C@H](C)[C@@H]2C)ccc1O`, the PC50 in assay [1] is 88.3 µM.

In the case of `C=C1CC[C@H]2[C@@H](C(C)C)C3=C(O[C@]2(C)CC[C@@H]2[C@@H]1CC2(C)C)C(C)(C)C(=O)C(C)(C)C3=O`, the PC50 in assay [1] stood at 28.1 µM.

With `CC(C)[C@@H]1C[C@]2(CC[C@]3(C(C)C)C[C@H]23)OC2=C1C(=O)C(C)(C)C(=O)C2(C)C`, the PC50 in assay [1] was found to be 3.9 µM.

Turning to `CC(C)[C@@H]1C=C[C@@]2(C)OC3=C(C(=O)C(C)(C)C(=O)C3(C)C)[C@H](C(C)C)[C@H]2C1`, in assay [1], the PC50 is 11.7 µM.

For `CC(C)[C@@H]1C=C[C@@]2(C)OC3=C(C(=O)C(C)(C)C(=O)C3(C)C)[C@@H](C(C)C)[C@H]2C1`, the PC50 in [1] came to 5 µM.

For the compound `Oc1cc(O)c2c(c1)O[C@H](c1ccc(O)c(O)c1)[C@@H](O)C2` [CIANIDANOL], in assay [1], the PC50 was more than 100 µM.

Take `COc1ccc(-c2cc(=O)c3c(O)c(C)c(OC)cc3o2)cc1`: in assay [1], the PC50 was 6.1 µM.

Regarding `CC1(C)C=C2C(=O)C(C)(C)C(=O)C(C)(C)C2(O)OO1` (configuration not stated) [ENDOPEROXIDE HORMONE G3], the PC50 in assay [1] came to 32.3 µM.

On to `CC(C)CC(=O)c1c(O)c2c(c3c1OC1(O)C(C(=O)C(C)(C)C(=O)C1(C)C)[C@@H]3C(C)C)OC1=C(C(=O)C(C)(C)C(=O)C1(C)C)[C@@H]2C(C)C` (some centres not stated), for which the PC50 in assay [1] was 0.6 µM.

Take `CC(C)[C@H]1C[C@]2(CC[C@]3(C(C)C)C[C@H]23)OC2=C1C(=O)C(C)(C)C(=O)C2(C)C`: the PC50 in [1] was determined as 10 µM.

As to `COc1cc(C[C@H]2C(=O)OC[C@@H]2Cc2ccc(OC)c(OC)c2)ccc1O` [ARCTIGENIN], in [1], the PC50 came out at 0.7 µM.

For the compound `CC(C)[C@@H]1C[C@]2(CC[C@H]3C[C@@H]2C3(C)C)OC2=C1C(=O)C(C)(C)C(=O)C2(C)C`, the PC50 in assay [1] worked out at 8 µM.

In the case of `COc1ccc(-c2cc(=O)c3c(O)c(C)c(OC)c(C)c3o2)cc1`, the PC50 in [1] worked out at 1 µM.

As to `CCC(C)[C@H](C1=C(O)C(C)(C)C(=O)C(C)(C)C1=O)c1c(O)c(C(=O)CC(C)C)c(O)c2c1O[C@]1(C)C=C[C@@H](C(C)C)C[C@H]21` (some centres not stated), the PC50 in assay [1] is 0.01 µM. For the same compound, the outcome in assay [2] was Active.

Regarding `CC(C)CC(=O)c1c(O)c([C@H](C2=C(O)C(C)(C)C(=O)C(C)(C)C2=O)C(C)C)c(O)c2c1O[C@]1(C)C=C[C@@H](C(C)C)C[C@H]21`, the PC50 in [1] is 0.065 µM. Besides, the outcome in assay [2] was Active. The Activity was determined as 95% in [3] and 92% in [4]. Also, the inhibition entry in assay [5], in [9], in assay [10], in assay [11], in assay [12] and in [13] was “Dose-dependent effect” each time. The inhibition (commonly the percentage by which the read-out fell short of the control) in assay [14] was “Dose-dependent effect”; in [15] it was “Tde”; in assay [16] it was “Tde”; in assay [17], “Tde”; in assay [18] it was “Tde”; in assay [19] it was “Tde”. In addition, the inhibition result in assay [20] is “Tde”. In addition, the inhibition at 2.5 µM in [6] was determined as 41%. Moreover, at 5 µM the inhibition in assay [7] was 63%. In [8], this compound came in with an inhibition at 10 µM of 80%. Also, in assay [21], the inhibition result is “Active”.

Consider `CC(C)=CCCC1=CCC2(C(=O)C(C)(C)C(=O)C(C)(C)C2=O)[C@@H](C(C)C)C1`, for which the PC50 in assay [1] amounted to 0.02 µM.
